IC50 data for 17 compounds are collected here from patent publication US9309263B2, “Fused multi-cyclic sulfone compounds as inhibitors of beta-secretase and methods of use thereof” (AMGEN INC., priority 2013, dated 2016).

One may read the IC50 as the concentration that inhibits the measured activity by half.

The target in experiment [1] is Beta Secretase enzyme (BACE) (Homo sapiens, UniProt P56817). In words: In vitro enzymatic BACE FRET assay. It is filed as biochemical. Particulars: average IC50, in vitro enzymatic BACE FRET assay; read-out: BACE1 FRET assay IC50. In outline: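 Cleavage of a quenched 50 nM FRET peptide substrate, read as fluorescence (excitation 488 nm, […]) after 1 h and Tris quench to neutrality. Buffer: 0.05 M acetate pH 4.2 with 10% DMSO and 100 uM genapol. Inhibitor dilutions were pre-incubated 1 h with 0.2 nM enzyme.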

Experiment [2] deals with Aβ 40 in conditioned medium of cells stably expressing Amyloid Precursor Protein (APP). In words: In vitro BACE cell-based assay (Aβ 40 sandwich ELISA). As to conditions: Homo sapiens, HEK293; average IC50, HEK cell assay, Aβ 40 readout. In outline:
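Aβ40 in conditioned medium measured by pAb40/biotin-6E10 sandwich ELISA with time-resolved europium fluorescence, after 24 h exposure of stable APP cells to compounds (10-point series starting 100 μM or 10 μM; 0.1% DMSO). IC50 fitted from percent of control against concentration.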
On the technique in general: An ELISA detects its analyte on a solid surface through an enzyme-linked reagent.

The target of experiment [3] is Cathepsin D (Cat D) (Homo sapiens, UniProt P07339). In words: In vitro enzymatic Cathepsin D (Cat D) FRET assay. It is filed as biochemical. Particulars: Cathepsin D FRET assay; read-out: CatD IC50. A digest of the protocol:
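FRET peptide substrate (20 nM) is cleaved by CHO-derived recombinant enzyme (9 nM) for 1 h after a 1 h inhibitor pre-incubation, at pH 3.5 in citrate buffer with 5 mM CHAPS and 10% DMSO. Tris addition ends the reaction; fluorescence measured at 500 nm excitation, 580 nm emission.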

Each structure is given as a SMILES string.

Sequence of Cathepsin D (Cat D) (P07339 65-412, species assumed): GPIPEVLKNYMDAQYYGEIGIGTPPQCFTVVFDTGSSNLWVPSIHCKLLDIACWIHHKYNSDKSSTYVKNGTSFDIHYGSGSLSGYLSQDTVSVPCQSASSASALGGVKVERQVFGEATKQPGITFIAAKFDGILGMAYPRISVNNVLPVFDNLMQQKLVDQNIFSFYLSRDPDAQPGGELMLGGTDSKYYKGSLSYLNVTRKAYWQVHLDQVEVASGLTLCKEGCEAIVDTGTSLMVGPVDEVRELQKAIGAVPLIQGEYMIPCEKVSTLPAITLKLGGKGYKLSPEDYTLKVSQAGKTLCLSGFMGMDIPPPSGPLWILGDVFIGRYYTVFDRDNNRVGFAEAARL
Sequence of Beta Secretase enzyme (BACE) (P56817 46-501): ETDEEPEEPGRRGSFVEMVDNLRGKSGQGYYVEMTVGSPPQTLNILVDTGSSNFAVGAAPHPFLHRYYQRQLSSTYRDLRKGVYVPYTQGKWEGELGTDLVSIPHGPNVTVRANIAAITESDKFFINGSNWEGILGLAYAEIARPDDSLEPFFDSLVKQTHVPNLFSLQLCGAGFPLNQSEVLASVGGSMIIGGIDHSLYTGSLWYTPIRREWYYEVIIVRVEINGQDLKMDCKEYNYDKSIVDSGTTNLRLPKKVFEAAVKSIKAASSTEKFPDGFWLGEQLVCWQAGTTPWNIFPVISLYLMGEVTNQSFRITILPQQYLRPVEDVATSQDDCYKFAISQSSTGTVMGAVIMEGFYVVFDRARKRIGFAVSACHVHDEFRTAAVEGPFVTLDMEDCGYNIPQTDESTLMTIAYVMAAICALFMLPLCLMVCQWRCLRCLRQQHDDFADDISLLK

As to `CCCOc1cnc2c(Nc3ccc4c(c3)[C@@]3(C)N=C(N)C(C)(C)S(=O)(=O)[C@@H]3C[C@H](C)O4)nccc2n1` [Example 135, (4aR,6S,11bR)-3,3,6,11b-tetramethyl-N^~10^~-(2-propoxypyrido[3,4-b]pyrazin-5-yl)-4a,5,6,11b-tetrahydro-3H-[1]benzoxepino[4,5-b][1,4]thiazine-2,10-diamine 4,4-dioxide], the IC50 was determined as 0.026 µM in experiment [1], 0.139 µM in experiment [2] and 104 µM in experiment [3].
Turning to `C[C@H]1C[C@@H]2[C@](C)(N=C(N)C(C)(C)S2(=O)=O)c2cc(Nc3nccc4nc(O)cnc34)ccc2O1` [Example 136, 5-(((4aR,6S,11bR)-2-amino-3,3,6,11b-tetramethyl-4,4-dioxido-4a,5,6,11b-tetrahydro-3H-[1]benzoxepino[4,5-b][1,4]thiazin-10-yl)amino)pyrido[3,4-b]pyrazin-2(1H)-one], the figures for the concentration for half-maximal inhibition (IC50) in experiment [1], in experiment [2] and in experiment [3] were 0.025 µM, 0.016 µM and 247 µM, respectively.
Consider `Cc1cc(COc2cnc3c(Nc4ccc5c(c4)[C@@]4(C)N=C(N)C(C)(C)S(=O)(=O)[C@@H]4C[C@H](C)O5)nccc3n2)on1` [Example 137, (4aR,6S,11bR)-3,3,6,11b-tetramethyl-N^~10^~-(2-((3-methyl-5-isoxazolyl)methoxy)pyrido[3,4-b]pyrazin-5-yl)-4a,5,6,11b-tetrahydro-3H-[1]benzoxepino[4,5-b][1,4]thiazine-2,10-diamine 4,4-dioxide], for which the half-inhibitory concentration (IC50) in experiment [1] was 0.018 µM; in experiment [2] it was 0.091 µM; in experiment [3] it was above 133 µM.
For the compound `COCCOc1cnc2c(Nc3ccc4c(c3)[C@@]3(C)N=C(N)C(C)(C)S(=O)(=O)[C@@H]3C[C@H](C)O4)nccc2n1` [Example 139, (4aR,6S,11bR)-N^~10^~-(2-(2-methoxyethoxy)pyrido[3,4-b]pyrazin-5-yl)-3,3,6,11b-tetramethyl-4a,5,6,11b-tetrahydro-3H-[1]benzoxepino[4,5-b][1,4]thiazine-2,10-diamine 4,4-dioxide], the IC50 in experiment [1] stood at 0.007 µM; in experiment [2], 0.008 µM; in experiment [3], 304 µM.
For the compound `C#CCOc1cnc2c(Nc3ccc4c(c3)[C@@]3(C)N=C(N)C(C)(C)S(=O)(=O)[C@@H]3CC(C)(C)O4)nccc2n1` [Example 141, (4aR,11bR)-3,3,6,6,11b-pentamethyl-N^~10^~-(2-(2-propyn-1-yloxy)pyrido[3,4-b]pyrazin-5-yl)-4a,5,6,11b-tetrahydro-3H-[1]benzoxepino[4,5-b][1,4]thiazine-2,10-diamine 4,4-dioxide], the IC50 in experiment [1] is 0.004 µM; in experiment [2], 0.017 µM; in experiment [3], 385 µM.
Take `C#CCOc1cnc(C(=O)Nc2ccc3c(c2)[C@@]2(C)N=C(N)C(C)(C)S(=O)(=O)[C@@H]2C[C@H](C)O3)cn1` [Example 142, N-((4aR,6S,11bR)-2-amino-3,3,6,11b-tetramethyl-4,4-dioxido-4a,5,6,11b-tetrahydro-3H-[1]benzoxepino[4,5-b][1,4]thiazin-10-yl)-5-(2-propyn-1-yloxy)-2-pyrazinecarboxamide]: the IC50 in experiment [1] amounted to 0.001 µM; in experiment [2] it was 0.0005 µM; in experiment [3], 215 µM.
Consider `C#CCOc1cnc(C(=O)Nc2ccc3c(c2)[C@@]2(C)N=C(N)C(C)(C)S(=O)(=O)[C@@H]2CC(C)(C)O3)cn1` [Example 143, N-((4aR,11bR)-2-Amino-3,3,6,6,11b-pentamethyl-4,4-dioxido-4a,5,6,11b-tetrahydro-3H-benzo[6,7]oxepino[4,5-b][1,4]thiazin-10-yl)-5-(prop-2-yn-1-yloxy)pyrazine-2-carboxamide], for which the IC50 in experiment [1] was determined as 0.002 µM; in experiment [2], 0.0005 µM; in experiment [3], 202 µM.
Regarding `C[C@H]1C[C@@H]2[C@](C)(N=C(N)C(C)(C)S2(=O)=O)c2cc(NC(=O)c3ccc(OCc4ncco4)cn3)ccc2O1` [Example 144, N-((4aR,6S,11bR)-2-amino-3,3,6,11b-tetramethyl-4,4-dioxido-4a,5,6,11b-tetrahydro-3H-[1]benzoxepino[4,5-b][1,4]thiazin-10-yl)-5-(1,3-oxazol-2-ylmethoxy)-2-pyridinecarboxamide], the half-maximal inhibitory concentration (IC50) in experiment [1] was 0.004 µM; in experiment [2], 0.003 µM; in experiment [3], 564 µM.
Turning to `C#CCOc1ccc(C(=O)Nc2ccc3c(c2)[C@@]2(C)N=C(N)C(C)(C)S(=O)(=O)[C@@H]2C[C@H](C)O3)nc1` [Example 145, N-((4aR,6S,11bR)-2-amino-3,3,6,11b-tetramethyl-4,4-dioxido-4a,5,6,11b-tetrahydro-3H-[1]benzoxepino[4,5-b][1,4]thiazin-10-yl)-5-(2-propyn-1-yloxy)-2-pyridinecarboxamide], the IC50 in experiment [1] was 0.001 µM; in experiment [2] it was 0.002 µM; in experiment [3], 329 µM.
For `C[C@H]1C[C@@H]2[C@](C)(N=C(N)C(C)(C)S2(=O)=O)c2cc(Nc3nccc4nc(OCc5ccn(C)n5)cnc34)ccc2O1` [Example 146, (4aR,6S,11bR)-3,3,6,11b-tetramethyl-N^~10^~-(2-((1-methyl-1H-pyrazol-3-yl)methoxy)pyrido[3,4-b]pyrazin-5-yl)-4a,5,6,11b-tetrahydro-3H-[1]benzoxepino[4,5-b][1,4]thiazine-2,10-diamine 4,4-dioxide], the IC50 was 0.005 µM in experiment [1], 0.004 µM in experiment [2] and 804 µM in experiment [3].
Taken in the same sequence, the figures for `Cc1cc(Cl)cnc1C(=O)Nc1ccc2c(c1)[C@@]1(CF)N=C(N)C(C)(C)S(=O)(=O)[C@H]1CCO2` [Example 147, N-((4aS,11bS)-2-amino-11b-(fluoromethyl)-3,3-dimethyl-4,4-dioxido-4a,5,6,11b-tetrahydro-3H-[1]benzoxepino[4,5-b][1,4]thiazin-10-yl)-5-chloro-3-methyl-2-pyridinecarboxamide] were 0.003 µM, 0.009 µM and 1280 µM.
For `CC1(C)C(N)=N[C@]2(CF)c3cc(Nc4nccc5cc(Cl)cnc45)ccc3OCC[C@H]2S1(=O)=O` [Example 148, (4aR,11bS)-N^~10^~-(3-chloro-1,7-naphthyridin-8-yl)-11b-(fluoromethyl)-3,3-dimethyl-4a,5,6,11b-tetrahydro-3H-[1]benzoxepino[4,5-b][1,4]thiazine-2,10-diamine 4,4-dioxide], the half-maximal inhibitory concentration (IC50) stood at 0.012 µM in experiment [1], 0.093 µM in experiment [2] and 710 µM in experiment [3].
The like results for `Cc1cc(Cl)cnc1C(=O)Nc1ccc2c(c1)[C@@]1(CF)N=C(N)C(C)(C)S(=O)(=O)[C@@H]1CCO2` [Example 149, N-((4aR,11bS)-2-amino-11b-(fluoromethyl)-3,3-dimethyl-4,4-dioxido-4a,5,6,11b-tetrahydro-3H-[1]benzoxepino[4,5-b][1,4]thiazin-10-yl)-5-chloro-3-methyl-2-pyridinecarboxamide] were, in that order, 0.009 µM, 0.044 µM and above 400 µM.
Taken in the same sequence, the figures for `CC(C)Oc1cnc2c(Nc3ccc4c(c3)[C@@]3(CF)N=C(N)C(C)(C)S(=O)(=O)[C@@H]3CCO4)nccc2n1` [Example 150, (4aR,11bS)-11b-(fluoromethyl)-3,3-dimethyl-N^~10^~-(2-(1-methylethoxy)pyrido[3,4-b]pyrazin-5-yl)-4a,5,6,11b-tetrahydro-3H-[1]benzoxepino[4,5-b][1,4]thiazine-2,10-diamine 4,4-dioxide] were 0.227 µM, 1.4 µM and above 400 µM.
On to `COc1cnc2c(Nc3ccc4c(c3)[C@@]3(CF)N=C(N)C(C)(C)S(=O)(=O)[C@@H]3CCO4)nccc2n1` [Example 151, (4aR,11bS)-11b-(fluoromethyl)-N^~10^~-(2-methoxypyrido[3,4-b]pyrazin-5-yl)-3,3-dimethyl-4a,5,6,11b-tetrahydro-3H-[1]benzoxepino[4,5-b][1,4]thiazine-2,10-diamine 4,4-dioxide], for which the half-inhibitory concentration (IC50) in experiment [1] is 0.037 µM; in experiment [2], 0.068 µM; in experiment [3], above 400 µM.
As for `COc1cnc(C(=O)Nc2ccc3c(c2)[C@@]2(CF)N=C(N)C(C)(C)S(=O)(=O)[C@@H]2CCO3)c(C)c1` [Example 152, N-((4aR,11bS)-2-amino-11b-(fluoromethyl)-3,3-dimethyl-4,4-dioxido-4a,5,6,11b-tetrahydro-3H-[1]benzoxepino[4,5-b][1,4]thiazin-10-yl)-5-methoxy-3-methyl-2-pyridinecarboxamide], the half-maximal inhibitory concentration (IC50) in experiment [1] is 0.031 µM; in experiment [2], 0.075 µM; in experiment [3] it was above 400 µM.
Regarding `Cc1cc(C#N)cnc1C(=O)Nc1ccc2c(c1)[C@@]1(CF)N=C(N)C(C)(C)S(=O)(=O)[C@H]1CCO2` [Example 153, N-((4aS,11bS)-2-amino-11b-(fluoromethyl)-3,3-dimethyl-4,4-dioxido-4a,5,6,11b-tetrahydro-3H-[1]benzoxepino[4,5-b][1,4]thiazin-10-yl)-5-cyano-3-methyl-2-pyridinecarboxamide], the IC50 in experiment [1] stood at 0.002 µM; in experiment [2], 0.006 µM; in experiment [3], 2070 µM.
